In article PMC4805251, “Novel Antimicrobial Peptides EeCentrocins 1, 2 and EeStrongylocin 2 from the Edible Sea Urchin Echinus esculentus Have 6-Br-Trp Post-Translational Modifications” (PLoS ONE, 2016):
Converted amounts (≈) assume the structure as drawn. Where two headings read alike, the source gives them in different places. Square brackets hold non-standard residues; d marks the D form. Peptide text beside a SMILES is read from it. Trp(6-Br) = N[C@@H](Cc1c[nH]c2cc(Br)ccc12)C(=O)O

Assays:
Assay type in all cases: cell-based
[1] = system: Bacillus subtilis (ATCC 23857)
Excerpt: (§1) Organic phase extract, SPE eluates and HPLC-fractions were screened for antibacterial activity against two strains of Gram-positive and two strains of Gram-negative bacteria; Corynebacterium glutamicum (ATCC 13032), Staphylococcus aureus (ATCC 9144), Pseudomonas aeruginosa #1 (ATCC 27853) and Escherichia coli #1 (ATCC 25922). For extended antimicrobial bioactivity screening, the following bacterial strains were used, three strains of Gram-positive bacteria; S. epidermidis #1 (5179-R1) kindly provided by Holger Rohde, S. epidermidis #2, RP62A (ATCC 35984) and Bacillus subtilis (ATCC 23857) in addition to the Gram-negative P. aeruginosa #2, PA 01 (ATCC 15692, DSM 19880) and E. coli #2, NR 698 (MC4100/ptD4213).
(§2) Cultures stored at -80°C were smeared onto agar plates and cultured for 24 h at 35°C. One colony of each bacterial strain was transferred to 5 ml liquid Müller-Hinton (MH, Difco, Lawrence, KS, USA) medium in a glass tube and left shaking at room temperature overnight at 600 rpm. The cultures of actively growing bacteria (20 μl) were further inoculated in 5 ml MH medium and left shaking for 2 h at room temperature. The antibacterial assays were performed as previously described by. Briefly, the bacterial cultures were diluted with medium to 1.3–1.5 × 10^4 bacteria/ml final concentrations and an aliquot of 50 μl was added to each well in 96-well Nunclon^TM microtiter plates (Nagle Nunc Int., Denmark) preloaded with 50 μl test sample solutions, i.e. extracts, eluates or peptides.
(§3) The test plates were incubated for 24 h at 35°C with optical density (OD595) recorded every hour using an Envision 2103 multilabel reader, controlled by the Wallac Envision manager (PerkinElmer, CT, USA). Antibacterial activity was defined as a sample showing >90% inhibition (as measured by optical density) compared to the negative (growth) controls, consisting of bacteria and water. Oxytetracycline (20 μM) served as a positive (inhibition) control. The minimum inhibitory concentration (MIC) was defined as the lowest concentration of a sample displaying >90% inhibition.
(§4) ACN-phases and SPE eluates were tested with two-fold serial dilutions ranging from 5.0 to 0.005 mg/ml (5.0, 2.5, 1.25, 0.63, 0.31, 0.16, 0.08, 0.04, 0.02, 0.01, 0.005 mg/ml) whereas HPLC-fractions were tested undiluted for antibacterial activity. Pure, native peptides and synthetic peptides (described in section 2.11) were tested for antimicrobial activity in concentrations ranging from 100 to 0.1 μM in two-fold serial dilutions (100, 50, 25, 12.5, 6.25, 3.13, 1.56, 0.78, 0.39, 0.20, 0.10 μM). Antimicrobial assays involving natural peptides (i.e. fractionated natural material) were run only once due to limited quantities, whereas all other assays were run in triplicates.

[2] = system: Corynebacterium glutamicum (ATCC 13032); conditions: for MIC C. glutamicum: ATCC 13032, 24 h
Excerpt: as §1, §2, §3, §4

[3] = system: E. coli #2, NR 698 (MC4100/ptD4213)
Excerpt: as §1, §2, §3, §4

[4] = system: Escherichia coli #1 (ATCC 25922)
Excerpt: as §1, §2, §3, §4

[5] = system: P. aeruginosa #2, PA 01 (ATCC 15692, DSM 19880); conditions: for MIC P. aeruginosa #2: ATCC 15692, 24 h
Excerpt: as §1, §2, §3, §4

[6] = system: Pseudomonas aeruginosa #1 (ATCC 27853)
Excerpt: as §1, §2, §3, §4

[7] = system: S. epidermidis #1 (5179-R1); conditions: for MIC S. epidermidis #1: #1 (5179-R1, 24 h)
Excerpt: as §1, §2, §3, §4

[8] = system: S. epidermidis #2, RP62A (ATCC 35984); conditions: for MIC S. epidermidis #2: ATCC 35984, 24 h
Excerpt: as §1, §2, §3, §4

[9] = system: Staphylococcus aureus (ATCC 9144); conditions: for MIC S. aureus: ATCC 9144, 24 h
Excerpt: as §1, §2, §3, §4

[10] = system: Aureobasidium pullulans; conditions: for MIC A. pullulans: 24 h
Method: (§5) The synthetic peptides (see section 2.11) were also screened for antifungal activity against Candida albicans (ATCC 10231), Saccharomyces cerevisiae, Rhodotorula sp., Aureobasidium pullulans and Cladosporium sp. The antifungal assay was performed as described previously. Briefly, fungal spores were dissolved in potato dextrose broth (Difco, Lawrence, KS, USA) to a concentration of 4 × 10^5 spores/ml. The spores (50 μl) were inoculated on 96-well Nunclon^TM microtiter plates containing the synthetic peptides (50 μl) dissolved in MQ-H2O. […] MIC was defined as the lowest concentration of peptide giving no visible fungal growth. The negative (growth) control contained medium and fungal solution.
as §4

[11] = system: Candida albicans (ATCC 10231); conditions: for MIC C. albicans: ATCC 10231, 24 h
Method: as §5, §4

[12] = system: Cladosporium sp.; conditions: for MIC Cladosporium sp.: 24 h
Method: as §5, §4

[13] = system: Rhodotorula sp.
Method: as §5, §4

[14] = system: Saccharomyces cerevisiae; conditions: for MIC S. cerevisiae: 24 h
Method: as §5, §4

[15] = system: Gram-positive and Gram-negative bacteria (tested strains); conditions: 24 h
Excerpt: as §1, with “(MC4100/ptD4213). […]” for “(MC4100/ptD4213).”
The test plates were incubated for 24 h at 35°C with optical density (OD595) recorded every hour using an Envision 2103 multilabel reader, controlled by the Wallac Envision manager (PerkinElmer, CT, USA). […]
ACN-phases and SPE eluates were tested with two-fold serial dilutions ranging from 5.0 to 0.005 mg/ml (5.0, 2.5, 1.25, 0.63, 0.31, 0.16, 0.08, 0.04, 0.02, 0.01, 0.005 mg/ml) whereas HPLC-fractions were tested undiluted for antibacterial activity. […] Antimicrobial assays involving natural peptides (i.e. fractionated natural material) were run only once due to limited quantities, whereas all other assays were run in triplicates.

CC[C@H](C)[C@H](NC(=O)[C@@H](N)CC(=O)O)C(=O)NCC(=O)N[C@@H](CCCCN)C(=O)N[C@@H](Cc1ccc(O)cc1)C(=O)N[C@@H](CS)C(=O)NCC(=O)N[C@@H](Cc1ccc(O)cc1)C(=O)N[C@@H](C)C(=O)N[C@@H](Cc1c[nH]cn1)C(=O)N[C@@H](C)C(=O)N[C@@H](CC(C)C)C(=O)N[C@@H](CC(N)=O)C(=O)O (stereo in doubt) [EeCentrocin 1 LC]
MIC B. subtilis ([1]; ATCC 23857, 24 h): >100 µM
MIC C. glutamicum [2]: >100 µM
MIC E. coli #2 ([3]; MH medium, 24 h at 35°C, OD595, >90% inhibition, value of Table 2, triplicates): >100 µM
MIC E. coli #1 ([4]; ATCC 25922, 24 h): >100 µM
MIC P. aeruginosa #2 [5]: >100 µM
MIC P. aeruginosa #1 ([6]; ATCC 27853, 24 h): >100 µM
MIC S. epidermidis #1 [7]: >100 µM
MIC S. epidermidis #2 [8]: >100 µM
MIC S. aureus [9]: >100 µM
MIC A. pullulans [10]: >100 µM
MIC C. albicans [11]: >100 µM
MIC Cladosporium sp. [12]: >100 µM
MIC Rhodotorula sp. ([13]; potato dextrose broth, 24 h at room temperature, visual, no visible fungal growth, value of Table 2, triplicates): >100 µM
MIC S. cerevisiae [14]: >100 µM

CC(C)C[C@H](NC(=O)[C@H](C)NC(=O)CNC(=O)[C@H](CS)NC(=O)[C@H](C)NC(=O)[C@H](CCCCN)NC(=O)[C@H](CO)NC(=O)[C@H](C)NC(=O)[C@H](Cc1ccccc1)NC(=O)CNC(=O)[C@H](C)NC(=O)[C@@H](NC(=O)[C@H](CCCCN)NC(=O)[C@H](CCCNC(=N)N)NC(=O)CNC(=O)[C@H](C)NC(=O)[C@H](CC(N)=O)NC(=O)[C@H](CCCNC(=N)N)NC(=O)[C@@H](NC(=O)[C@H](CCCCN)NC(=O)[C@H](CC(=O)O)NC(=O)[C@@H](NC(=O)[C@@H](NC(=O)[C@H](CCCNC(=N)N)NC(=O)[C@H](CCCNC(=N)N)NC(=O)[C@H](Cc1c[nH]c2cc(Br)ccc12)NC(=O)[C@H](Cc1c[nH]c2cc(Br)ccc12)NC(=O)CN)[C@@H](C)O)C(C)C)C(C)C)C(C)C)C(=O)NCC(=O)N[C@@H](Cc1c[nH]cn1)C(=O)O [EeCentrocin 1 HC-diBr] (H-G[Trp(6-Br)][Trp(6-Br)]RRTVDKVRNAGRKVAGFASKACGALGH-OH)
MIC raw data B. subtilis ([1]; parallel 1 of three): 1.56 µM (≈ 5.33 µg/mL)
MIC raw data B. subtilis ([1]; parallel 2 of three): 1.56 µM (≈ 5.33 µg/mL)
MIC raw data B. subtilis ([1]; parallel 3 of three): 0.78 µM (≈ 2.66 µg/mL)
MIC C. glutamicum [2]: 0.78 µM (≈ 2.66 µg/mL)
MIC raw data C. glutamicum ([2]; parallel 1 of three): 0.78 µM (≈ 2.66 µg/mL)
MIC raw data C. glutamicum ([2]; parallel 2 of three): 0.78 µM (≈ 2.66 µg/mL)
MIC raw data C. glutamicum ([2]; parallel 3 of three): 0.39 µM (≈ 1.33 µg/mL)
MIC raw data E. coli #2 ([3]; parallel 1 of three): 1.56 µM (≈ 5.33 µg/mL)
MIC raw data E. coli #2 ([3]; parallel 2 of three): 1.56 µM (≈ 5.33 µg/mL)
MIC raw data E. coli #2 ([3]; parallel 3 of three): 0.78 µM (≈ 2.66 µg/mL)
MIC raw data E. coli #1 ([4]; parallel 1 of three): 1.56 µM (≈ 5.33 µg/mL)
MIC raw data E. coli #1 ([4]; parallel 2 of three): 1.56 µM (≈ 5.33 µg/mL)
MIC raw data E. coli #1 ([4]; parallel 3 of three): 0.78 µM (≈ 2.66 µg/mL)
MIC P. aeruginosa #2 [5]: 3.13 µM (≈ 10.7 µg/mL)
MIC raw data P. aeruginosa #2 ([5]; parallel 1 of three): 3.13 µM (≈ 10.7 µg/mL)
MIC raw data P. aeruginosa #2 ([5]; parallel 2 of three): 3.13 µM (≈ 10.7 µg/mL)
MIC raw data P. aeruginosa #2 ([5]; parallel 3 of three): 3.13 µM (≈ 10.7 µg/mL)
MIC raw data P. aeruginosa #1 ([6]; parallel 1 of three): 1.56 µM (≈ 5.33 µg/mL)
MIC raw data P. aeruginosa #1 ([6]; parallel 2 of three): 1.56 µM (≈ 5.33 µg/mL)
MIC raw data P. aeruginosa #1 ([6]; parallel 3 of three): 1.56 µM (≈ 5.33 µg/mL)
MIC S. epidermidis #1 [7]: 6.25 µM (≈ 21.3 µg/mL)
MIC raw data S. epidermidis #1 ([7]; parallel 1 of three): 6.25 µM (≈ 21.3 µg/mL)
MIC raw data S. epidermidis #1 ([7]; parallel 2 of three): 6.25 µM (≈ 21.3 µg/mL)
MIC raw data S. epidermidis #1 ([7]; parallel 3 of three): 6.25 µM (≈ 21.3 µg/mL)
MIC S. epidermidis #2 [8]: 3.13 µM (≈ 10.7 µg/mL)
MIC raw data S. epidermidis #2 ([8]; parallel 1 of three): 3.13 µM (≈ 10.7 µg/mL)
MIC raw data S. epidermidis #2 ([8]; parallel 2 of three): 3.13 µM (≈ 10.7 µg/mL)
MIC raw data S. epidermidis #2 ([8]; parallel 3 of three): 3.13 µM (≈ 10.7 µg/mL)
MIC S. aureus [9]: 3.13 µM (≈ 10.7 µg/mL)
MIC raw data S. aureus ([9]; parallel 1 of three): 3.13 µM (≈ 10.7 µg/mL)
MIC raw data S. aureus ([9]; parallel 2 of three): 3.13 µM (≈ 10.7 µg/mL)
MIC raw data S. aureus ([9]; parallel 3 of three): 1.56 µM (≈ 5.33 µg/mL)
MIC A. pullulans [10]: 6.25 µM (≈ 21.3 µg/mL)
MIC raw data A. pullulans ([10]; parallel 1 of three): 6.25 µM (≈ 21.3 µg/mL)
MIC raw data A. pullulans ([10]; parallel 2 of three): 6.25 µM (≈ 21.3 µg/mL)
MIC raw data A. pullulans ([10]; parallel 3 of three): 6.25 µM (≈ 21.3 µg/mL)
MIC C. albicans [11]: 50 µM (≈ 171 µg/mL)
MIC raw data C. albicans ([11]; parallel 1 of three): 50 µM (≈ 171 µg/mL)
MIC raw data C. albicans ([11]; parallel 2 of three): 50 µM (≈ 171 µg/mL)
MIC raw data C. albicans ([11]; parallel 3 of three): 50 µM (≈ 171 µg/mL)
MIC Cladosporium sp. [12]: >100 µM
MIC raw data Cladosporium sp. ([12]; parallel 1 of three): >100 µM
MIC raw data Cladosporium sp. ([12]; parallel 2 of three): >100 µM
MIC raw data Cladosporium sp. ([12]; parallel 3 of three): >100 µM
MIC raw data Rhodotorula sp. ([13]; parallel 1 of three): 12.5 µM (≈ 42.7 µg/mL)
MIC raw data Rhodotorula sp. ([13]; parallel 2 of three): 12.5 µM (≈ 42.7 µg/mL)
MIC raw data Rhodotorula sp. ([13]; parallel 3 of three): 12.5 µM (≈ 42.7 µg/mL)
MIC S. cerevisiae [14]: >100 µM
MIC raw data S. cerevisiae ([14]; parallel 1 of three): >100 µM
MIC raw data S. cerevisiae ([14]; parallel 2 of three): >100 µM
MIC raw data S. cerevisiae ([14]; parallel 3 of three): >100 µM
MIC range towards bacteria [15]: 0.78 to 6.25 µM
